{
  "source": "patent US20170072012A1",
  "about": "“USE OF GSMTX4 TO REDUCE ISCHEMIA REPERFUSION INJURY” (priority 2014, published 2017)",
  "key": {"[1]": {"test": "Single-dose pharmacokinetic study, plasma and heart concentration by LC/MS/MS", "assay_type": "in vivo, CD-1 mice", "settings": "for Tmax: female, CD-1, mouse, plasma and heart", "procedure": "For single-dose pharmacokinetic studies, 7-9 week old female CD-1 mice were obtained from Charles River Laboratories, Inc. by Covance Laboratories Inc., Greenfield, Ind., USA. For subcutaneous injection, GsMTx4-D was dissolved at a concentration of 7.5 mg/ml in phosphate buffered saline pH 7.4 and injected subcutaneously into the back of mice at a net dose of 50 mg/kg. For intravenous (IV) administration into the tail vein, 1.5 mg/ml GsMTx4-D was used to achieve a dose of 5 mg/kg. Animals were sacrificed at 5, 15, 30, 60, 120, 480, 960 and 1920 min after injection, and blood and heart tissue samples were harvested. Animals were checked for death or morbidity during the whole trial. At the conclusion of each trial period, mice were euthanized by CO2 inhalation for 10 min. Blood samples were treated with sodium heparin and centrifuged to obtain plasma. There were cohorts of 3 mice per time point, and tissue samples from the 3 animals were combined from each time point to create average samples. Samples were sent to Custom Biologics, Mississauga, ON, Canada to measure the amount of GsMTx4 by liquid chromatography tandem mass spectrometry (LC/MS/MS) in the tissue samples. A reference standard was included in each sample consisting of a functional mutant of GsMTx4-D (F34A). All procedures in this protocol are in compliance with the U.S. Department of Agriculture's (USDA) Animal Welfare Act (9 CFR Parts 1, 2, and 3); the Guide for the Care and Use of Laboratory Animals: Eighth Edition, (Institute for Laboratory Animal Research, The National Academies Press, Washington, D.C., 2010); and the National Institutes of Health, Office of Laboratory Animal Welfare. Whenever possible, procedures in this study were designed to avoid or minimize discomfort, distress, and pain to animals. For ischemic reperfusion (I/R) testing, we used male C57B1/6J mice (4-6 months of age) obtained from Jackson Laboratories (Bar Harbor, […].). All animal protocols in this study were approved by the Institutional Animal Care and Use Committee of the University at Buffalo-State University of New York.\nTo provide a frame of reference for concentration and timing, we compared IV (fast absorption) to subcutaneous (slow absorption) administration and determined the distribution of the peptide in the heart and plasma over 24 hrs using LC/MS/MS (FIG. 1). Mice were sacrificed at different times after injection and the plasma (FIG. 1A) and heart (FIG. 1B) concentrations sampled. […] The samples from the 3 mouse cohorts at each time point were mixed and averaged. […] IV injection of 5 mg/kg GsMTx4-D produced an early spike in plasma concentration ([…] at 5 min) that decayed within 30 min. […] We used 1-5 μM ([…] is 1 μM) as our target concentration for treatment. IV injection of 5 mg/kg GsMTx4-D produced plasma concentrations within 5 minutes that were substantially above the target concentration while whole heart concentrations were somewhat lower than this range. Other ranges may be used for treatment, such as about 1.5-4.5 μM, about 2-4 μM, about 2.5-3.5 μM, about 1-4 μM, about 1-3 μM and about 1-2 μM. The whole heart concentration was lower than the target range within 5 minutes of IV injection, but the net plasma concentrations were acceptable.\nBased on the slower distribution by subcutaneous administration, we injected 10 times the concentration of GsMTx4-D as that used in IV injection. The concentrations increased more slowly in both plasma and heart, peaking in ˜2 hrs, although we could reliably detect it in both tissues within 5 minutes. […] Without being bound by any theory, we believe that this is likely due to deeper infiltration into the tissue, and possibly higher affinity associations."}, "[2]": {"system": "ischemic reperfusion injury in mouse heart", "test": "In vivo pressure-volume relationships after I/R (left ventricular catheterization)", "parameters": "species or system C57B1/6J mice", "settings": "50 mg/kg IP pretreatment, 24 h reperfusion", "procedure": "In order to determine hemodynamic differences, we measured the pressure-volume (P-V) relationships in real time in 3 groups of mice, including a sham group that was exposed to the open heart operation but not FR, and the two I/R (20min ischemia/24h reperfusion) induced groups pretreated with either vehicle or GsMTx4-D. To measure the P-V relationships, mice were anesthetized with 4% isoflurane and 100% O2, quickly intubated and ventilated with a respirator. […] The rib cage was slightly retracted and the diaphragm was gently cut away to attain an apical view of the myocardium. A 27-gauge needle was inserted into the apex of the LV free wall to create a guide-hole. A 1.2-French microtransducer pressure-volume impedance catheter (Scisense, London, ON, CA) was then inserted into the lumen of LV to assess real-time LV function. Hemodynamic parameters such as heart rate, cardiac output, and ejection fraction were measured and calculated with the iWorx software (Dover, N.H.). Each group included 5 (sham and GsMTx4-D) to 6 (vehicle) independent experiments.\nTo examine the effects of GsMTx4-D on hemodynamics, we compared the P-V relationships between the GsMTx4-D (50 mg/kg) and vehicle (saline 50 μL) in pretreated mice. After 20 min of ischemia followed by 24 h reperfusion, the left ventricle was catheterized to acquire real time P-V relationships (FIG. 3). […] In addition, GsMTx4-D produced improvements in both end systolic and diastolic volumes (FIG. 3 H and I) that led to a significant improvement in ejection fraction (61.7±3.4%, P<0.05) (FIG.3 G). Clearly, GsMTx4-D improves heart function after FR."}, "[3]": {"test": "Single-dose pharmacokinetic study, plasma and heart concentration by LC/MS/MS", "assay_type": "in vivo, CD-1 mice", "settings": "based on the PK analysis"}, "[4]": {"settings": "subcutaneous injection 50 mg/kg"}},
  "note": "Like-named read-outs stand apart in the source and are kept apart here. Where a SMILES comes first, the peptide text is derived from it. Bridges are numbered along the chain shown (N, C = ends). [ ]: non-standard residue; d: D form.",
  "data": [
    {"compound": "CC(C)C[C@H]1NC(=O)[C@H](NC(=O)CN)CSSC[C@H]2NC(=O)[C@H]3CSSC[C@H](C(=O)N[C@H](CC(N)=O)C(=O)N[C@H](Cc4ccccc4)C(=O)N[C@H](CO)C(=O)N[C@H](Cc4ccccc4)C(N)=O)NC(=O)[C@@H](CC(C)C)NC(=O)[C@@H](CCCCN)NC(=O)[C@@H](Cc4ccccc4)NC(=O)[C@@H](CC(C)C)NC(=O)[C@@H](CCCCN)NC(=O)[C@@H](CO)NC(=O)[C@@H](CSSC[C@@H](NC(=O)[C@@H](CCCCN)NC(=O)[C@@H](Cc4c[nH]c5ccccc45)NC(=O)[C@@H](Cc4c[nH]c5ccccc45)NC(=O)[C@@H](Cc4ccccc4)NC(=O)[C@@H](CCC(=O)O)NC1=O)C(=O)N[C@H](CC(N)=O)C(=O)N1CCC[C@@H]1C(=O)N[C@H](CC(N)=O)C(=O)N[C@H](CC(=O)O)C(=O)N[C@H](CC(=O)O)C(=O)N[C@H](CCCCN)C(=O)N3)NC(=O)[C@@H](CCCCN)NC(=O)[C@@H](CC(C)C)NC(=O)[C@@H](CCCCN)NC(=O)[C@H]1CCCN1C(=O)[C@@H](CCCNC(=N)N)NC2=O", "note": "[GsMTx4-D] (H-G[dC][dL][dE][dF][dW][dW][dK][dC][dN][dP][dN][dD][dD][dK][dC][dC][dR][dP][dK][dL][dK][dC][dS][dK][dL][dF][dK][dL][dC][dN][dF][dS][dF]-NH2; disulfide 2-17, 9-23, 16-30 (inferred); N-terminus and C-terminus assumed)", "values": [
      {"measurement": "death or abnormal behavior during PK study", "setting": "[1]; IV 5 mg/kg or subcutaneous 50 mg/kg", "value": "No mice died during the study, nor did any show abnormal behavior"},
      {"measurement": "time within which plasma concentration spike decayed", "setting": "[1]; IV injection of 5 mg/kg", "value": "≤ 30", "unit": "min"},
      {"measurement": "Tmax", "setting": "[1]; 5 mg/kg, after IV injection, read-out: time of concentration spike in plasma and heart", "value": "< 0.0833", "unit": "h"},
      {"measurement": "Tmax", "setting": "[1]; sc, subcutaneous injection 50 mg/kg, read-out: time of peak concentration in plasma and heart", "value": "~2", "unit": "h"},
      {"measurement": "half-life", "setting": "[1]; mouse, in vivo, D form", "value": "> 24", "unit": "h"},
      {"measurement": "heart concentration twenty four hours after injection", "setting": "[1]; single 50 mg/kg subcutaneous injection, target range 1-5 μM", "value": "near the target range"},
      {"measurement": "plasma concentration by 24 hrs", "setting": "[1]; [4]", "value": "nearly undetectable"},
      {"measurement": "time of peak concentration in plasma and heart", "setting": "[1]; [4]", "value": "~2", "unit": "h"},
      {"measurement": "stroke volume", "setting": "[2]; vehicle 18.9±2.3, sham 26.7±1.9", "value": "26.2 ± 1.9", "unit": "µL"},
      {"measurement": "ejection fraction", "setting": "[2]; vehicle 44.4±4.9, sham 75.5±6.4", "value": "61.7±3.4", "unit": "%"},
      {"measurement": "heart rate", "setting": "[2]; vehicle 243.9±6.9, sham 304.0±23.6", "value": "298.7±14.3", "unit": "bpm"},
      {"measurement": "cardiac output", "setting": "[2]; vehicle 4636±602, sham 8039±690", "value": "77580 ± 321", "unit": "µL/min"},
      {"measurement": "end systolic and diastolic volumes", "setting": "[2]; vs vehicle", "value": "improvements"},
      {"measurement": "predicted concentration in the heart at the time of reperfusion", "setting": "[3]; after the 1 mg/kg IV injection during ischemia", "value": "< 0.5", "unit": "µM"},
      {"measurement": "predicted concentration in the heart at the time of reperfusion", "setting": "[3]; after two IP pretreatments (50 mg/kg)", "value": "1 to 2", "unit": "µM"}
    ]}
  ]
}
